Our source for the IC50 values is US20210363152A1, “AMINOAZINE AMIDES” (Hoffmann-La Roche Inc., priority 2018, published 2021).

Structures are written as SMILES.

The IC50 is the concentration that inhibits the measured activity by half.

The experiment has as its target T1, Autotaxin enzyme (ATX) (Homo sapiens, UniProt Q13822).
T1 construct: purchased Echelon Biosciences, Inc. E-4000
Kind of experiment: In vitro ATX assay (enzymatic ATX inhibition, LPC 14:0 substrate, choline oxidase/HRP absorbance readout). Particulars: 0.3 mM LPC 14:0, 37° C., 4 hours, absorbance 555 nm. The format is biochemical. The essentials:
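Human ATX (10 ng/mL as added) in pH 9.0 Tris buffer with NaCl, MgCl2, CoCl2 and Triton X-100 was preincubated with compound for 15 min at 37 °C. LPC 14:0 (0.3 mM final) was then hydrolysed for 4 h at 37 °C. Released choline was detected by choline oxidase/HRP with 4-AAP/TOOS, read after 15 min RT as absorbance at 555 nm, giving banded IC50 values.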
Molecule `COC1CN(C(=O)c2cnc(NCc3cc(OC(F)(F)F)cc(C4CC4)c3)nc2)C1` [Example 109, (2-((3-cyclopropyl-5-(trifluoromethoxy)benzyl)ami-no)pyrimidin-5-yl)(3-methoxyazetidin-1-yl)-methanone] gave an IC50 below 100 nM.
The molecule `CC(C)(O)C1CCN1C(=O)c1cnc(NCc2cc(OC(F)(F)F)cc(C3CC3)c2)nc1` (stereo not shown) [Example 115, (2-((3-cyclopropyl-5-(trifluoromethoxy)benzyl)ami-no)pyrimidin-5-yl)(2-(2-hydroxypropan-2-yl)azetidin-1-yl)methanone] had an IC50 below 100 nM.
For `CCN1CC2(CCN2C(=O)c2cnc(NCc3cc(OC(F)(F)F)cc(C4CC4)c3)nc2)C1` [Example 143, (2-((3-Cyclopropyl-5-(trifluoromethoxy)benzyl)amino)pyrimidin-5-yl)(6-ethyl-1,6-diazaspiro[3.3]heptan-1-yl)methanone], the IC50 is below 100 nM.
Molecule `O=C(c1cnc(NCc2cccc(OC(F)(F)F)c2)cn1)N1CCC12COC2` [Example 71, 6-Oxa-1-azaspiro[3.3]heptan-1-yl(5-((3-(trifluoromethoxy)benzyl)|amino)pyrazin-2-yl)methanone] returned an IC50 of 100 to 1000 nM.
Consider `CC1(O)CC2(CCN2C(=O)c2cnc(N[C@@H]3Cc4ccc(Cl)cc4C3)nc2)C1` (stereo partly drawn) [Example 134, (R)-(2-((5-Chloro-2,3-dihydro-1H-inden-2-yl)amino)pyrimidin-5-yl)(6-hydroxy-6-methyl-1-azaspiro[3.3]heptan-1-yl)methanone], for which the IC50 was below 100 nM.
In turn, `O=C(c1cnc(NCc2cc(OC(F)(F)F)cc(C3CC3)c2)nc1)N1CCC12CN(C1CC1)C2` [Example 146, (2-((3-Cyclopropyl-5-(trifluoromethoxy)benzyl)amino)pyrimidin-5-yl) (6-cyclopropyl-1,6-diazaspiro[3.3]heptan-1-yl)methanone] had an IC50 below 100 nM.
Take `COC[C@H]1CCN1C(=O)c1cnc(NCc2cc(OC(F)(F)F)cc(C3CC3)c2)nc1` [Example 103, (R)-(2-((3-cyclopropyl-5-(trifluoromethoxy)benzyl)ami-no)pyrimidin-5-yl)(2-(methoxymethyl)azetidin-1-yl)methanone]: the IC50 was below 100 nM.
`CCOc1cc(CNc2ncc(C(=O)N3CCC34COC4)cn2)cc(OC(C)C)c1` [Example 159, (2-((3-Ethoxy-5-isopropoxybenzyl)amino)pyrimidin-5-yl) (6-oxa-1-azaspiro[3.3]heptan-1-yl)methanone] returned an IC50 below 100 nM.
As to `O=C(c1cnc(NC2Cc3ccc(Cl)cc3C2)nc1)N1CCC1` (stereo not shown) [Example 56], the IC50 is below 100 nM.
In turn, `CC(=O)N1CC2(CCN2C(=O)c2cnc(NC3Cc4ccc(Cl)cc4C3)nc2)C1` (stereo not shown) [Example 154, 1-(1-(2-((5-Chloro-2,3-dihydro-1H-inden-2-yl)amino)pyrimidine-5-carbonyl)-1,6-diazaspiro[3.3]heptan-6-yl)ethanone] displayed an IC50 below 100 nM.
In turn, `O=C(c1cnc(NCc2cc(OC(F)(F)F)cc(C3CC3)c2)nc1)N1CCC12CCCOC2` (stereo not shown) [Example 108, (2-((3-cyclopropyl-5-(trifluoromethoxy)benzyl)ami-no)pyrimidin-5-yl)(6-oxa-1-azaspiro[3.5]nonan-1-yl)-methanone] yielded an IC50 below 100 nM.
The same measure for `O=C(c1cnc(NCc2cc(OC(F)(F)F)cc(C3CC3)c2)nc1)N1CCC12COC2` [Example 80, (2-((3-cyclopropyl-5-(trifluoromethoxy)benzyl)ami-no)pyrimidin-5-yl)(6-oxa-1-azaspiro[3.3]heptan-1-yl)-methanone]: below 100 nM; for `CC(C)c1cc(CNc2ncc(C(=O)N3CCC34COC4)cn2)cc(OC(F)(F)F)c1` [Example 1, (2-((3-Isopropyl-5-(trifluoromethoxy)benzyl)amino)pyrimidin-5-yl) (6-oxa-1-azaspiro[3.3]heptan-1-yl)methanone]: below 100 nM.
`O=C(c1cnc(NCc2cc(OC(F)(F)F)cc(C3CC3)c2)nc1)N1CCC2COCC21` (stereo not shown) [Example 111, (2-((3-cyclopropyl-5-(trifluoromethoxy)benzyl)ami-no)pyrimidin-5-yl)(hexahydro-1H-furo[3,4-b]pyrrol-1-yl)methanone]: the IC50 was below 100 nM.
With `O=C(c1cnc(N[C@H]2Cc3ccc(Br)cc3C2)nc1)N1CCC12COC2` [Example 61], the concentration for half-maximal inhibition (IC50) lay in the range of 100 to 1000 nM.
Regarding `O=C(c1cnc(NCc2cc(OC(F)(F)F)cc(C3CC3)c2)nc1)N1CCC12CN(C1COC1)C2` [Example 145, (2-((3-Cyclopropyl-5-(trifluoromethoxy)benzyl)amino)pyrimidin-5-yl) (6-(oxetan-3-yl)-1,6-diazaspiro[3.3]heptan-1-yl)methanone], the IC50 is below 100 nM.
The same measure for `CC(C)c1cc(CNc2ncc(C(=O)N3CCCCC3)cn2)cc(OC(F)(F)F)c1` [Example 22]: 100 to 1000 nM; for `COc1cc(CNc2ncc(C(=O)N3CCC3C)cn2)cc(OC)c1` (stereo not shown) [Example 11]: at least 1000 nM; for `O=C(c1cnc(NC2Cc3ccc(Cl)cc3C2)nc1)N1CCC12CS(=O)(=O)C2` (stereo not shown) [Example 49]: below 100 nM.
`O=C(c1ccc(NCc2cccc(OC(F)(F)F)c2)nn1)N1CCC12COC2` [Example 72, 6-Oxa-1-azaspiro[3.3]heptan-1-yl(6-((3-(trifluoromethoxy)benzyl)amino)pyridazin-3-yl)methanone] returned an IC50 of at least 1000 nM.
With `CS(=O)(=O)C1CN(C(=O)c2cnc(NCc3cc(OC(F)(F)F)cc(C4CC4)c3)nc2)C1` [Example 88, (2-((3-cyclopropyl-5-(trifluoromethoxy)benzyl)ami-no)pyrimidin-5-yl)(3-(methylsulfonyl)azetidin-1-yl)methanone], the IC50 was 100 to 1000 nM.
`O=C(c1cnc(NCc2cc(OC(F)(F)F)cc(C3CC3)c2)nc1)N1CCC12CCCOC2` (single isomer, unassigned) [Example 121, (2-((3-Cyclopropyl-5-(trifluoromethoxy)benzyl)amino)-pyrimidin-5-yl)(6-oxa-1-azaspiro[3.5]nonan-1-yl)methanone] showed an IC50 below 100 nM.
The molecule `O=C(c1cnc(NCc2cc(C3CC3)cc(C(F)(F)F)c2)nc1)N1CCC12COC2` [Example 36] came in with an IC50 below 100 nM.
As for `CC1CC(C)N1C(=O)c1cnc(NCc2cc(OC(F)(F)F)cc(C3CC3)c2)nc1` (single isomer, unassigned) [Example 120, (2-((3-Cyclopropyl-5-(trifluoromethoxy)-benzyl)amino)pyrimidin-5-yl)(2,4-dimethylazetidin-1-yl)methanone], the IC50 is below 100 nM.
For the molecule `O=C(c1ccc(NC2Cc3ccc(Cl)cc3C2)nc1)N1CCC12COC2` (stereo not shown) [Example 78, (6-((5-Chloro-2,3-dihydro-1H-inden-2-yl)amino)pyridin-3-yl)(6-oxa-1-azaspiro[3.3]heptan-1-yl)methanone], the IC50 lay in the range of 100 to 1000 nM.
`NC(=O)c1cc(CNc2ncc(C(=O)N3CCC34COC4)cn2)cc(OC(F)(F)F)c1` [Example 140, 3-(((5-(6-Oxa-1-azaspiro[3.3]heptane-1-carbonyl)pyrimidin-2-yl)amino)methyl)-5-(trifluoromethoxy)benzamide] displayed an IC50 of at least 1000 nM.
The molecule `CC(C)Oc1cc(CNc2ncc(C(=O)N3CCC34COC4)cn2)cc(C2CC2)c1` [Example 38] came in with an IC50 below 100 nM.
In the case of `O=C(c1cnc(N[C@H]2Cc3ccc(Cl)cc3C2)nc1)N1CCC12COC2` [Example 130, (S)-(2-((5-Chloro-2,3-dihydro-1H-inden-2-yl)amino)pyrimidin-5-yl)(6-oxa-1-azaspiro[3.3]heptan-1-yl)methanone], the concentration for half-maximal inhibition (IC50) fell in the range of 100 to 1000 nM.
The molecule `CC(C)c1cc(CNc2ncc(C(=O)N3CCC3C)cn2)cc(OC(F)(F)F)c1` (single isomer, unassigned) [Example 70, (2-((3-Isopropyl-5-(trifluoromethoxy)benzyl)amino)pyrimidin-5-yl)(2-methylazetidin-1-yl)methanone] returned an IC50 below 100 nM.
`O=C(c1cnc(N[C@@H]2Cc3ccc(Cl)cc3C2)nc1)N1CCC12CCOC2` (stereo partly drawn) [Example 132, (2-(((R)-5-Chloro-2,3-dihydro-1H-inden-2-yl)amino)pyrimidin-5-yl)(6-oxa-1-azaspiro[3.4]octan-1-yl)methanone] returned an IC50 below 100 nM.
The same measure for `Cc1ccc2c(c1)CC(Nc1ncc(C(=O)N3CCC34COC4)cn1)C2` (stereo not shown) [Example 124, (2-((5-Methyl-2,3-dihydro-1H-inden-2-yl)amino)pyrimidin-5-yl)(6-oxa-1-azaspiro[3.3]heptan-1-yl)methanone]: 100 to 1000 nM; for `CCCc1cc(CNc2ncc(C(=O)N3CCC34COC4)cn2)cc(OC(C)C)c1` [Example 39]: below 100 nM; for `O=C(c1cnc(NCc2cc(OCC(F)(F)F)cc(OC(F)(F)F)c2)nc1)N1CCC12COC2` [Example 35]: below 100 nM.
Molecule `O=C(c1cnc(NCc2cc(OC(F)(F)F)cc(C3CC3)c2)nc1)N1CC(F)(F)C1` [Example 86, (2-((3-cyclopropyl-5-(trifluoromethoxy)benzyl)ami-no)pyrimidin-5-yl)(3,3-difluroazetidin-1-yl)-methanone] returned an IC50 of 100 to 1000 nM.
In the case of `O=C(c1cnc(NCc2cc(OC(F)(F)F)cc(C3CC3)c2)nc1)N1CC2(CCO2)C1` [Example 105, (2-((3-cyclopropyl-5-(trifluoromethoxy)benzyl)ami-no)pyrimidin-5-yl)(1-oxa-6-azaspiro[3.3]heptan-6-yl)methanone], the IC50 is 100 to 1000 nM.
Molecule `CN1CC2(CCCN2C(=O)c2cnc(NCc3cc(OC(F)(F)F)cc(C4CC4)c3)nc2)C1` [Example 157, (2-((3-Cyclopropyl-5-(trifluoromethoxy)benzyl)amino)pyrimidin-5-yl)(2-methyl-2,5-diazaspiro[3.4]octan-5-yl)methanone] came in with an IC50 below 100 nM.
`CC1CC(C)N1C(=O)c1cnc(NCc2cc(OC(F)(F)F)cc(C3CC3)c2)nc1` (stereo not shown) [Example 93, (2-((3-cyclopropyl-5-(trifluoromethoxy)benzyl)ami-no)pyrimidin-5-yl)(2,4-dimethylazetidin-1-yl)methanone]: the half-inhibitory concentration (IC50) was below 100 nM.
